In US20260168987A1, “OBLIQUE LINE SCANNER SYSTEMS AND METHODS FOR HIGH THROUGHPUT SINGLE MOLECULE TRACKING IN LIVING CELLS” (EIKON THERAPEUTICS, INC., priority 2022, published 2026):

Tested on: Halo-PCNA U2OS cells
Assay: Cell cycle phase assignment by machine learning model in Halo-PCNA U2OS cells
Format: cell-based
Settings: 2 mM Thymidine (S-phase block) or RO-3306 (G2-M block) per FIG. 20B legend
Protocol: Time-lapse microscopy was conducted on Halo-PCNA labeled with 50 nM JFX650, to achieve near-saturating labeling, for 12 hours at 12 frames per hour (FIG. 21A). A machine learning model was then trained using both manually assigned cell stages and time-based progression resulting in both a G1, early S, mid S, late S, G2 and mitosis classifier as well as a regression prediction across the continuum of the cell cycle (FIG. 21B). The predicted cell cycle classification performed well as compared to manual annotation (FIG. 21C). Clear progression of individual cells through the cell cycle was observed when regression prediction was plotted across the time series (FIG. 21D). […] When cells in each cell phase were analyzed separately, it became apparent that the slow-moving population of PCNA was exclusively found in cell predicted to be in S-phase and that there was a marked decrease in the fast-moving population (FIG. 20E). Mean diffusion coefficient of PCNA was then measured for 4,081 individual cells to characterize heterogeneity across the cell population, which is described in large part by cell cycle (FIG. 20F).
Cell cycle as provided above can be automatically determined using an image (e.g., an image of JF549-labeled PCNA). […]

Structure (SMILES) | fraction of cells assigned to cell phases
O=C1NC(=NCc2cccs2)S/C1=C\c1ccc2ncccc2c1 [RO-3306] | expected enrichment in the fraction of cells assigned to the respective cell phases
Cc1cn([C@H]2C[C@H](O)[C@@H](CO)O2)c(=O)[nH]c1=O [thymidine] | expected enrichment in the fraction of cells assigned to the respective cell phases
